# Reference: US20260294946A1, “METHOD TO REDUCE FEED CONVERSION RATIO IN A FARMED ANIMAL” (Inbiose N.V., priority 2023, published 2026)
# Legend:
# [1] = Trial in calves: health and safety observation (adverse effects, mortality, diarrhea); type: in vivo, Holstein Friesian calves; conditions: after 12 weeks
# Description: Holstein Friesian calves (2- to 3-week-old, 95% male) were transported from different farms to the experimental facility of Denkavit (Voorthuizen, The Netherlands) where the animals were reared. The calves were randomly and gender-equally divided in four groups based on experimental calf milk replacer (CMR): group A (placebo—standard CMR powder of the farm), group B (standard CMR powder supplemented with 0.005% dry wt. 2′FL), group C (standard CMR powder supplemented with 0.025% dry wt. 3′SL and 0.015% w/w 6′SL) and group D (standard CMR powder supplemented with 0.005% dry wt. 2′FL, 0.025% dry wt. 3′SL and 0.015% dry wt. 6′SL). The calf milk replacer was administered as a liquid to the calves (water was added to the CMR powder to obtain 150 grams CMR powder per liter liquid CMR). Each group involved 100 calves, assigned into four rows (25 calves per row) of two compartment blocks. […]
# Calves were followed up by the farm staff since arrival until 12 weeks. Fecal consistency in scale 1-4 (Larson et al., 1977, J. Dairy Science, 60(6): p. 989-991) was recorded daily for the first ten days since arrival. […] Disease incidences and medicinal usage based on individual treatments were recorded to compare between treatment groups. […] Live weight of the animals was monitored at arrival (d1), two weeks (W2), six weeks (W6), ten weeks (W10) and 12 weeks (W12) since arrival. […]
# [2] = Trial in piglets: body weight, growth, feed intake and feed conversion (pre-weaning, 22 days); type: in vivo
# Description: The in vivo experiment was carried out at the commercial pig farm “Degroote Luc” (Bissegem, Belgium).
# The experimental design had two treatments: • “Ti” serves as control, i.e., a placebo (water) was drenched during the first 4 days of life, and subsequently a commercial milk replacer as a liquid and creep feed was offered until weaning, • “T2,” a […] solution of 2′FL (it is referred to Example 1) in water was drenched during the first 4 days of life, and subsequently a commercial milk replacer supplemented with 2′FL (warm water was added to 250 g of milk powder to reach 25.000 (w/v)) and creep feed supplemented with 2′FL (10% w/w 2′FL) was offered until weaning. The composition of milk replacer and creep feed are detailed in Table 4.
# Within 6 hours after birth of all piglets within a litter, piglets were tagged, weighed and ranked according to live weight. This was d0 of the study. Then, the first drenching was given, i.e., the heaviest piglet in the pen receives Ti, the next piglet T2 and so forth, until 12 piglets of that litter were drenched. In the next litter, the order of treatment application was alternated. This practice was done in 16 litters, and drenching was repeated on d1, d2 and d3. At the d4, […] were allocated to 16 pens with 6 piglets each, in the nursery unit. Ti was applied in 8 pens, and T2 was offered in 8 remaining pens. Piglets were allocated to pens according to litter of origin (from each of the 16 litters; 6 vital, normal to heavy weight piglets, body weight ≥1.7 kg, were taken and half of the piglets were allocated to a pen from T1—those receiving T1 in the first 3 days of life, and others to a pen from T2—those receiving T2 in the first 3 days of life), and to body weight and sex. Piglets were offered the liquid milk replacer through a cup connected to a mixing-tubing system and had free access to milk at all times. Milk intake was accurately measured at pen level. From d14 on, in addition, piglets were offered a creep feed (solid feed in feeder pan). Piglets were weighed at d0, d4, d14 and d22 (day of weaning).
# Data was collected with respect to piglet performance (body weight, average daily gain (ADG), average daily feed intake and milk replacer for periods d0-4, d4-14, d14-22, d4-22, d0-22, total creep feed intake for period d14-22 and feed conversion for all periods.
# Data were analyzed using appropriate linear mixed model with treatment as fixed effect (T1 vs. T2) and litter as random effect, and body weight at d0 as co-variate if P<0.05. Piglet was used as experimental unit for growth data, whereas pen was the experimental unit for other records.
substance,measurement,setting,value
2′-fucosyllactose [2′FL],incidence of diarrhea,[1],0%
same,"body weight, ADG, milk intake, and creep feed intake versus placebo",[2]; 22 days of pre-weaning phase,no significant differences
same,FCR versus placebo,"[2]; 22 days of pre-weaning phase, trend",there is a trend that the FCR is reduced
same,Body weight,"[2]; d 0, P=0.839 vs placebo",1536 g
same,ADG (average daily gain),"[2]; d 0-4, P=0.363 vs placebo",139 g/day
same,ADG (average daily gain),"[2]; d 0-22, P=0.297 vs placebo",185 g/day
same,Body weight,"[2]; d 4, P=0.369 vs placebo",2087 g
same,ADFI milk (average daily feed intake),"[2]; d 4-14, P=0.555 vs placebo",149 g DM/d
same,FCR (milk),"[2]; d 4-14, P=0.835 vs placebo",1.03 g milk DM/g
same,ADG (average daily gain),"[2]; d 4-14, P=0.950 vs placebo",150 g/day
same,ADG (average daily gain),"[2]; d 4-22, P=0.253 vs placebo",196 g/day
same,FCR (milk),"[2]; d 4-22, P=0.268 vs placebo",1.04 g milk DM/g
same,ADFI milk (average daily feed intake),"[2]; d 4-22, P=0.834 vs placebo",202 g DM/d
same,Body weight,"[2]; d 14, P=0.946 vs placebo",3524 g
same,FCR (milk + creep feed),"[2]; d 14-22, P=0.038 vs placebo",1.18 (g milk DM + g creep feed DM)/
same,FCR (milk),"[2]; d 14-22, P=0.055 vs placebo",1.09 g milk DM/g
same,ADG (average daily gain),"[2]; d 14-22, P=0.134 vs placebo",250 g/day
same,ADFI creep feed (average daily feed intake),"[2]; d 14-22, P=0.304 vs placebo",23.8 g DM/d
same,ADFI milk (average daily feed intake),"[2]; d 14-22, P=0.885 vs placebo",270 g DM/d
same,Body weight,"[2]; d 22, P=0.306 vs placebo",5524 g
same,FCR versus placebo,"[2]; day 14 to 22, milk and creep feed (P=0.038)",even lower
same,FCR versus placebo,"[2]; day 14 to 22, milk intake (P=0.055)",lower
